Experimental data as given in PubChem BioAssay (NCI).
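The compound was tested at five concentrations on cells cultured in 96-well plates, with a 48-hour exposure period. TGI denotes the concentration required for complete inhibition of growth.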

What was measured:
Assay in all cases: DTP human tumour cell line panel, 48 h
[1] = test system: EKVX NSCLC
[2] = test system: T-47D breast
[3] = test system: NCI-H23 lung
[4] = test system: A549 NSCLC
[5] = test system: SNB-75 CNS
[6] = test system: MOLT-4 leukemia
[7] = test system: MALME-3M melanoma
[8] = test system: HCC-2998 colon
[9] = test system: NCI-H460 lung
[10] = test system: CAKI-1 renal

SMILES	TGI [1]	TGI [2]	TGI [3]	TGI [4]	TGI [5]	TGI [6]	TGI [7]	TGI [8]	TGI [9]	TGI [10]
CSc1c(C#N)c(N)n2c1C(=O)N(c1ccccc1)C2=S	> 100 µM	> 100 µM	> 100 µM	> 100 µM	> 100 µM	> 100 µM	> 100 µM	> 100 µM	> 100 µM	> 100 µM
N#CC(C#N)=CNC(=S)c1ccncc1	> 100 µM	> 100 µM	> 100 µM	> 100 µM	> 100 µM	> 100 µM	> 100 µM	> 100 µM	> 100 µM	> 100 µM
Cc1nn(C(=O)Cc2ccccc2)c2c1C(c1ccc(O)cc1)SC(N)=N2 (configuration not stated)	> 100 µM	> 100 µM	> 100 µM	> 100 µM	> 100 µM	> 100 µM	> 100 µM	> 100 µM	> 100 µM	> 100 µM
C=CC[C@]12C[C@@H](C(=O)OC)N(C(=O)OC)[C@H]1N(S(=O)(=O)c1ccccc1)c1ccccc12	> 100 µM	> 100 µM	> 100 µM	> 100 µM	> 100 µM	> 100 µM	> 100 µM	> 100 µM	> 100 µM	> 100 µM
O=C1c2cc3c(cc2CC1Br)CCC3 (configuration not stated)	28.9 µM	5.68 µM	9.27 µM	38.7 µM	7.44 µM	4.56 µM	2.82 µM	13.4 µM	56.2 µM	3.23 µM
CCN(C(=S)N[C@@H](Cc1ccccc1)C(=O)N[C@@H](CC(C)C)C(=O)OC)c1ccccc1	> 100 µM	> 100 µM	> 100 µM	> 100 µM	> 100 µM	81.2 µM	> 100 µM	> 100 µM	> 100 µM	> 100 µM
CN(C)CCCN1C(=S)N(CCCN(C)C)c2c3cc(O)ccc3nc3c([N+](=O)[O-])ccc1c23	16.2 µM	9.48 µM	17.1 µM	9.73 µM	16.9 µM	8.81 µM	22.2 µM	8.02 µM	6.7 µM	15 µM
O=P(c1ccccc1)(c1ccccc1)N1O[C@@H](c2ccccc2)C=C[C@H]1c1ccccc1	24.1 µM	20 µM	25.2 µM	24 µM	26.5 µM	27.5 µM	29.2 µM	27.5 µM	20.1 µM	22.4 µM
Nc1c(-c2cccc3ccccc23)c2ccc([N+](=O)[O-])cc2c(=O)n1-c1nc2ccccc2s1	17.4 µM	> 100 µM	> 100 µM	> 53.4 µM	9.65 µM	> 27.5 µM	13.4 µM	> 100 µM	> 100 µM	> 31.6 µM
CC(C)/C(Cl)=N\OC(=O)Nc1ccc(C#N)cc1	7.31 µM	40.2 µM	30 µM	39.9 µM	31.6 µM	5.41 µM	6.81 µM	29.9 µM	33.4 µM	10.3 µM
O=C(/C=C/c1ccsc1)c1ccsc1	> 100 µM	92.2 µM	54.8 µM	> 100 µM	> 100 µM	44.7 µM	75.1 µM	35.6 µM	69.6 µM	41.4 µM
CCCNC(=O)CCC(C)[C@H]1CCC2C3C(C[C@H](OC(C)=O)[C@@]21C)[C@@]1(C)CCC2(C[C@H]1C[C@H]3OC(C)=O)OOC1(CCC(C)CC1)OO2 (some centres not stated)	30.6 µM	38.4 µM	18.7 µM	5.26 µM	53.5 µM	> 100 µM	40.3 µM	79.1 µM	71.2 µM	5.14 µM
Oc1ccccc1/C=N/c1nc2cc3sc(/N=C/c4ccccc4O)nc3cc2s1	> 100 µM	> 100 µM	> 100 µM	> 100 µM	> 100 µM	81.2 µM	> 100 µM	> 100 µM	> 100 µM	> 100 µM
Cc1ccccc1C(O)(c1nccn1C)c1nccn1C	> 100 µM	> 100 µM	–	> 100 µM	> 100 µM	> 100 µM	> 100 µM	> 100 µM	> 100 µM	> 100 µM
c1ccc2sc(SCSc3nc4ccccc4s3)nc2c1	> 100 µM	> 100 µM	> 100 µM	> 100 µM	> 100 µM	> 100 µM	> 100 µM	> 100 µM	> 100 µM	> 100 µM
CC(O)C1CC1(CO)CNc1cc(Cl)nc(N)n1 (configuration not stated)	> 100 µM	> 100 µM	> 100 µM	> 100 µM	> 100 µM	> 100 µM	> 100 µM	> 100 µM	> 100 µM	> 100 µM
Brc1cccc(Nc2nc(-c3cccs3)nc3ccc(Br)cc23)c1	98.1 µM	> 100 µM	> 100 µM	> 100 µM	> 100 µM	> 100 µM	65.2 µM	42.1 µM	> 100 µM	68.5 µM

SMILES	TGI [1]	TGI [2]	TGI [3]	TGI [4]	TGI [5]	TGI [6]	TGI [7]	TGI [8]	TGI [9]	TGI [10]
CN(C)C(=S)S	> 100 µM	> 100 µM	> 93.3 µM	> 100 µM	> 100 µM	> 100 µM	> 90.2 µM	59.4 µM	> 100 µM	> 100 µM
CCCCC1c2c([nH]c3ccccc23)C2C(=O)N(c3ccc(OC)cc3)C(=O)C2C1CCC (configuration not stated)	> 10 µM	> 10 µM	> 10 µM	> 10 µM	6.5 µM	7.97 µM	9.42 µM	> 10 µM	> 10 µM	6.25 µM
CO[C@]12CC(=O)C3(C(C[C@H]4CC5CC=C6C[C@@H](OC(C)=O)CC[C@]6(OC(C)=O)C5C[C@@]43C)C1)C1C[C@H]3[C@@H]4CC=C5C[C@@H](OC(C)=O)CC[C@]5(OC(C)=O)[C@H]4CC[C@]3(C)C12 (some centres not stated)	54.9 µM	33.4 µM	39 µM	> 100 µM	94.2 µM	63.3 µM	35 µM	41.6 µM	47.8 µM	34.3 µM
C=CCn1c(=O)ccn(COCCO)c1=O	> 100 µM	> 100 µM	> 100 µM	> 100 µM	> 100 µM	> 100 µM	> 100 µM	> 100 µM	> 100 µM	> 100 µM
O=C(NCCCN(CCCCN(CCCNC(=O)C(F)(F)F)Cc1ccccc1)Cc1ccccc1)C(F)(F)F	25.3 µM	40.6 µM	30.9 µM	59.5 µM	27.9 µM	39.9 µM	28.4 µM	14.7 µM	22.1 µM	26.4 µM
COc1ccc(C2(CC(C)O)SCCCS2)cc1 (configuration not stated)	> 100 µM	> 100 µM	> 100 µM	> 100 µM	> 100 µM	> 100 µM	> 100 µM	> 100 µM	> 100 µM	> 100 µM
COc1cc(C2SCC(=O)N2c2ccc(NC(=O)c3ccc(N4C(=O)CSC4c4cc(OC)c(OC)c(OC)c4)cc3)cc2)cc(OC)c1OC (configuration not stated)	> 100 µM	> 100 µM	> 100 µM	> 100 µM	> 100 µM	> 100 µM	> 100 µM	> 100 µM	> 100 µM	> 100 µM
CC(C)COP(=O)(OCC(C)C)C(NS(=O)(=O)c1ccccc1)(C(F)(F)F)C(F)(F)F	19 µM	9.34 µM	14.2 µM	14.4 µM	12.6 µM	14.9 µM	32.4 µM	18.5 µM	–	18.6 µM
CN(C)c1nc(=NCc2ccccc2)ss1	> 10 µM	> 10 µM	> 10 µM	> 10 µM	> 10 µM	> 6.19 µM	> 10 µM	> 10 µM	> 10 µM	> 10 µM
C1=CC2=CC=CC3c4nc5ccc6ccccc6c5nc4C(=C1)C23 (configuration not stated)	> 100 µM	> 100 µM	> 100 µM	> 100 µM	> 100 µM	> 100 µM	> 100 µM	> 100 µM	> 100 µM	> 100 µM
CC1CC[C@@]2(OC1)OC1C[C@H]3[C@@H]4CC[C@H]5CC(OC6OC(CO)C(OC7OC(CO)C(O)C(O)C7OC7OC(CO)C(O)C(O)C7O)C(O)C6O)CCC5(C)[C@H]4CCC3(C)C1[C@@H]2C (some centres not stated)	2.21 µM	8.51 µM	10.7 µM	7.93 µM	4.81 µM	3.54 µM	12.5 µM	2.06 µM	11.6 µM	10.6 µM
O=[N+]([O-])/C(C(Cl)=C(Cl)Cl)=C(\Nc1cccc2cccnc12)SCc1ccccc1	49.1 µM	40.2 µM	32.7 µM	88.4 µM	40.9 µM	14.4 µM	28.9 µM	36.7 µM	55.3 µM	43.3 µM
C/C=C/C=C/c1nc(C#N)c(N)o1	> 100 µM	> 100 µM	> 100 µM	> 100 µM	> 100 µM	> 100 µM	> 100 µM	> 100 µM	–	> 100 µM
O=c1c2cc3c(cc2[nH]c2ncccc12)OCO3	> 10 µM	> 10 µM	> 10 µM	> 10 µM	> 10 µM	> 10 µM	> 10 µM	> 10 µM	> 10 µM	> 10 µM
COc1ccc2cc3c4cc5c(cc4cc[n+]3cc2c1OC)OCO5	> 100 µM	> 100 µM	65.1 µM	> 100 µM	67 µM	> 100 µM	15.1 µM	> 55.5 µM	> 100 µM	> 100 µM
O=c1cc(N=P(c2ccccc2)(c2ccccc2)c2ccccc2)n(-c2ccccc2)c(=O)n1-c1ccccc1	49.8 µM	55.2 µM	32 µM	24.6 µM	39.9 µM	22 µM	33.5 µM	69.7 µM	22 µM	> 100 µM
